Data reported in patent US8673909B2, “Indole compounds and methods for treating visceral pain” (NeurAxon, Inc., priority 2007, dated 2014).
Where a name gives a salt, the structure may show the parent alone. Read-outs that look alike come from different tables or passages of the source. One block for each compound: values may come before it.

Legend:
[1] = target: T1, Nitric oxide synthase (neuronal, human recombinant) nNOS (Homo sapiens, UniProt P29475); experiment: nNOS (human) enzyme assay, [3H]-L-arginine to L-citrulline; assay type: biochemical
T1 construct: purchased Axxora LLC ALX-201-068

[2] = target: 5-HT1D (Bos taurus, UniProt F1MMU1); experiment: 5-HT1D binding assay (agonist radioligand), bovine caudate membranes
Procedure: (§1) 5-HT1D binding assays (agonist radioligand) were performed using bovine caudate membranes according to the methods of Heuring and Peroutka (J. Neurosci., 7: 894-903 (1987)). 5-HT1B (rat cerebral cortex) binding assays (agonist radioligand) were performed according to the method of Hoyer et. al. (Eur. J. Pharmacol., 118: 1-12 (1995)). For the purpose of result analysis, the specific ligand binding to the receptors is defined as the difference between the total binding and the nonspecific binding as determined in the presence of an excess of unlabelled ligand. The results are expressed as a percent of control specific binding obtained in the presence of the test compounds.

[3] = target: T2, 5-HT1B (Rattus norvegicus, UniProt P28564); experiment: 5-HT1B binding assay (agonist radioligand), rat cerebral cortex
T2 construct: from tissue; host or cells: rat cerebral cortex
Procedure: as §1, with “compounds. IC50 values (concentration causing a half-maximal inhibition of control specific binding) and Hill coefficients (nH) were determined by non-linear regression analysis of the competition curves using Hill equation curve fitting and the inhibition constants (Ki) were calculated from the Cheng Prusoff equation (Ki=IC50/(1+(L/KD)), where L=concentration of radioligand in the assay, and KD=affinity of the radioligand for the receptor).” for “compounds.”

[4] = target: Recombinant human inducible NOS (iNOS) (Homo sapiens, UniProt P35228); experiment: Human iNOS assay, radiometric; assay type: biochemical; settings: Table 10, human iNOS; read-out: iNOSh
Procedure: Recombinant human inducible NOS (iNOS) was produced in Baculovirus-infected Sf9 cells (ALEXIS). […] 15 μL of test substances are added to the mixture with the specific enzyme and pre-incubated at RT for 15 min. • 2. […] The incubation is carried out at 37° C. for 45 min. • 4. […] An aliquot 70 μL of the supernatant is added to 100 μL scintillation fluid. • 8.
The total volume of the reaction mixture is 150 μL in every well. All assays are performed at least in duplicate. Standard deviations are 10% or less.

[5] = target: T3, Nitric oxide synthase (endothelial, human recombinant) eNOS (Homo sapiens, UniProt P29474); experiment: eNOS (human) enzyme assay, [3H]-L-arginine to L-citrulline; assay type: biochemical
T3 construct: purchased Axxora LLC ALX-201-070

[6] = system: rats with experimental pancreatitis; experiment: Pancreatitis visceral pain model (DBTC), referred abdominal hypersensitivity, von Frey; assay type: in vivo, rat
Procedure: Adult male Sprague Dawley rats (Harlan, Indianapolis, Ind.), weighing 150-200 g were maintained in a climate-controlled room with ad lib food and water on a 12-h light/dark cycle (lights on at 07:00 hours). All procedures followed the policies of the International Association for the Study of Pain and the NIH guidelines for the handling and use of laboratory animals. Studies were approved by the University of Arizona IACUC.
Pancreatitis was produced by a tail vein injection of dibutyltin dichloride (DBTC, Aldrich, Milwaukee, Wis., 0.25 cc) dissolved in 100% ethanol at a dose of 8 mg/kg under isofluorane anesthesia (2-3 liters/min, 4.0%/vol until anesthetized, then 2.5%/vol throughout the procedure) (Vera-Portocarrero et al., 2006). Control animals were injected with the vehicle solution only (100% ethanol, 0.25 cc).
Referred abdominal hypersensitivity in the pancreatitis model was quantified by measuring the number of withdrawals events evoked by application of a calibrated von Frey filament (determined by either abdominal withdrawal, licking of the abdominal area, or whole body withdrawal). Rats were placed inside Plexiglas boxes on an elevated fine fiberglass screen mesh and acclimated for 30 minutes before testing. A 4 g von Frey filament was applied from underneath through the mesh floor, to the abdominal area at different points on the surface. […] The mean occurrence of withdrawal events in each trial is expressed as the number of responses to 10 applications as previously described (Vera-Portocarrero et al., 2003).
Significant differences between each experimental group for the behavioral test across time were detected by a two-factor ANOVA follow by the Fishers Least Significance Difference post-hoc test. One-factor ANOVA was used to detect significant differences in behavioral outcomes within each experimental group over time. A linear regression analysis was used to detect the dose-dependency of the effects. Significance was established at the p<0.05 level.

[7] = Table 11, bovine 1D receptor binding, read-out: 5HT1D
[8] = Table 15, read-out: IC50 in μM (Human eNOS)

T2 sequence (P28564 whole entry): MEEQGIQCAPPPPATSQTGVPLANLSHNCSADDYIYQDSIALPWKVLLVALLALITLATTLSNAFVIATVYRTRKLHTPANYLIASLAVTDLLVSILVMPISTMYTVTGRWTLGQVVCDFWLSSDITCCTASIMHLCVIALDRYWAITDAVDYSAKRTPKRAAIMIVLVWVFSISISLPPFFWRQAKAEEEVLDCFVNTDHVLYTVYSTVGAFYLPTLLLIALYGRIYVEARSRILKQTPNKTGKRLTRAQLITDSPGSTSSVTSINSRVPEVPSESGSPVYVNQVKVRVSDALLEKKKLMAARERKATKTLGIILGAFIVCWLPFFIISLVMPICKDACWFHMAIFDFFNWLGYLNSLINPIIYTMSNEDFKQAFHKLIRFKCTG
T1 sequence (P29475 whole entry): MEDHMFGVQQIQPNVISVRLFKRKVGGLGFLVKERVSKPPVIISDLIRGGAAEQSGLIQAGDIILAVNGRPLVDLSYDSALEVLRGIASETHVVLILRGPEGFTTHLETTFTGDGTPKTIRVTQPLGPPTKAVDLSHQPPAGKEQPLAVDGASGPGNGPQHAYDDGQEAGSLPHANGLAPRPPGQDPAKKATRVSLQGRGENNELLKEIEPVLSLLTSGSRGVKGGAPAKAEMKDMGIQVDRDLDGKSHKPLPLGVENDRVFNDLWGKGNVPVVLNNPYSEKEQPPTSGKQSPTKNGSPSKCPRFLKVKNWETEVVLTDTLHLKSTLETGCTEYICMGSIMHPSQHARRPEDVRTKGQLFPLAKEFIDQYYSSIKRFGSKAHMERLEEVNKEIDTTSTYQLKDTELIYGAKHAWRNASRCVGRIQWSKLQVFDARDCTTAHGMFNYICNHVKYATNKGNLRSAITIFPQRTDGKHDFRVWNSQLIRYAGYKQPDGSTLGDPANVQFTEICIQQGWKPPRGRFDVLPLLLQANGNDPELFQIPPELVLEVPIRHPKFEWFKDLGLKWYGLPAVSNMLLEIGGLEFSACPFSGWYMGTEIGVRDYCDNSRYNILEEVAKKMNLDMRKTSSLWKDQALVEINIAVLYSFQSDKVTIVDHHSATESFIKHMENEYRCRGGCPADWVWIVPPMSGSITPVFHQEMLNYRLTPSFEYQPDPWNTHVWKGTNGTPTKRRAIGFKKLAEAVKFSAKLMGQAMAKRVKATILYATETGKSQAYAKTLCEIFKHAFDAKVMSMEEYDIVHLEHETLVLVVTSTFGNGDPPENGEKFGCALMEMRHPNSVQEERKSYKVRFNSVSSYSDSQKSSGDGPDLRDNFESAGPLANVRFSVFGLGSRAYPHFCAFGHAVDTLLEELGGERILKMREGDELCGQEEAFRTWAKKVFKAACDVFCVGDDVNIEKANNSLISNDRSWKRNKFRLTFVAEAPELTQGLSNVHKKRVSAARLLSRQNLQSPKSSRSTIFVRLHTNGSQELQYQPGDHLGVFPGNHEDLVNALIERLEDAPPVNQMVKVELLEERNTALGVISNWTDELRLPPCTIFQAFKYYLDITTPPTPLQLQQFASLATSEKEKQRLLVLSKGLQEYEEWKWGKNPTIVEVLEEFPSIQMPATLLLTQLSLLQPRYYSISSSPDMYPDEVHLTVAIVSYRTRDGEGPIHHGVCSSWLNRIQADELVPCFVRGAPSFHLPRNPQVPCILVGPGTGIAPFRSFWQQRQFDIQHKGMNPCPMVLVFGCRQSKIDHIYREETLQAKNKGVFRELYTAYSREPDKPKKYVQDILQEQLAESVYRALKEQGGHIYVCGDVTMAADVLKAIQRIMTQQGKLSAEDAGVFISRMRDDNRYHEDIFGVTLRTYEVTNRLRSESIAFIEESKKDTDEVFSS
Chain of 5-HT1D (F1MMU1 1-377): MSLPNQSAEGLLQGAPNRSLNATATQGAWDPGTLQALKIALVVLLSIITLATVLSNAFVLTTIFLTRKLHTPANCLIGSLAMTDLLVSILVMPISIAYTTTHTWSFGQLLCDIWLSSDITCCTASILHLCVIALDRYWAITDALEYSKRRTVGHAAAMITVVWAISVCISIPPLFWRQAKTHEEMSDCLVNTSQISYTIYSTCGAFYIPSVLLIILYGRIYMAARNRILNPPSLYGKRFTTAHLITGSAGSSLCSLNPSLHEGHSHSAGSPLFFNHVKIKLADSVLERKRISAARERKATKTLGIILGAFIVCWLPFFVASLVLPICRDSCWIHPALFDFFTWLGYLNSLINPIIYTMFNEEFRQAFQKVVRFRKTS
T3 sequence (P29474 whole entry): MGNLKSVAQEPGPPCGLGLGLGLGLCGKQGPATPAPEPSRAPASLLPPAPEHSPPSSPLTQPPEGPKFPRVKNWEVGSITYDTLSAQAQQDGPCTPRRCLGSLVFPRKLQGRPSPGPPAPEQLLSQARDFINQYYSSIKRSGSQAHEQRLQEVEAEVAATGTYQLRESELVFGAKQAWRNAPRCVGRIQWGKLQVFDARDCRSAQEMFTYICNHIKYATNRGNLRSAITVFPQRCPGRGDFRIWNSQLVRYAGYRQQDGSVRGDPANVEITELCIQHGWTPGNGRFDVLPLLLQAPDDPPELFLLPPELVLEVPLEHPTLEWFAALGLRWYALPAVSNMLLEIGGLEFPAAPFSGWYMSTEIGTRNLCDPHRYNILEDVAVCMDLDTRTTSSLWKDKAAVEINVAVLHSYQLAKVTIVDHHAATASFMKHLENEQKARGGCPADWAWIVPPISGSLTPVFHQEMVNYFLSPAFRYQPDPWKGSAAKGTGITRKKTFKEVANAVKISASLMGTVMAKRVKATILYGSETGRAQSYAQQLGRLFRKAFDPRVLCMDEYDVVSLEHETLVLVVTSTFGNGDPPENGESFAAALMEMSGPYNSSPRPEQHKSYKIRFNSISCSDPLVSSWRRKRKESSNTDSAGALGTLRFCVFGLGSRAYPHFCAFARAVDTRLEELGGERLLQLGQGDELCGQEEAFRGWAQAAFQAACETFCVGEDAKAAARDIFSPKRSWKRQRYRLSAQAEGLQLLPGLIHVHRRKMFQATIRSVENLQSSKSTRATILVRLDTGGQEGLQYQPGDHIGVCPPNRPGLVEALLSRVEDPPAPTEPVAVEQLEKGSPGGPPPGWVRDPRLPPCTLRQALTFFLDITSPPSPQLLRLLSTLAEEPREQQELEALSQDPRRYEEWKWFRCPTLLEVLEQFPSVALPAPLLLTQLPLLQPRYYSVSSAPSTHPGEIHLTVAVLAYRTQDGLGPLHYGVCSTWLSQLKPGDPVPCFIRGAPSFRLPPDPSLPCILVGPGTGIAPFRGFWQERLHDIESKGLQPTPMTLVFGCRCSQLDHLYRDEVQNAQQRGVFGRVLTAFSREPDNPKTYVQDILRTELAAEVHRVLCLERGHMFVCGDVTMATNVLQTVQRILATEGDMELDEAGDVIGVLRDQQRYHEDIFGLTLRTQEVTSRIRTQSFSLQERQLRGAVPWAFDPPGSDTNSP

eNOS/nNOS ([1]; Table 15, selectivity ratio): 55.6
Compound: CCNC1CCC(c2c[nH]c3ccc(NC(=N)c4cccs4)cc23)C1 (mixture of isomers) [Compound 26, N-(3-(3-(ethylamino)cyclopentyl)-1H-indol-5-yl)thiophene-2-carboximidamide]

IC50 [2, 7]: 0.19 µM | IC50 ([1]; Table 10, human nNOS, read-out: nNOSh): 0.4 µM | e/n ([1]; Table 10, ratio eNOS/nNOS): 97 | IC50 ([3]; Table 11, rat 1B receptor binding): 0.85 µM | IC50 [4]: 35 µM | IC50 ([5]; Table 10, human eNOS, read-out: eNOSh): 38.7 µM
Compound: CN1CCC(c2c[nH]c3ccc(NC(=N)c4cccs4)cc23)C1 (racemic) [Compound 6, N-(3-(1-methylpyrrolidin-3-yl)-1H-indol-5-yl)thiophene-2-carboximidamide]

Compound: CNC1CCCC(c2c[nH]c3ccc(NC(=N)c4cccs4)cc23)C1 (racemic) [Compound (±)-20, N-(3-((1S,3R)-3-(Methylamino)cyclohexyl)-1H-indol-5-yl)thiophene-2-carboximidamide]
IC50 ([2]; read-out: 5HT 1D, Table 14): 2.8 µM | IC50 ([3]; Table 14, read-out: 5HT 1B): 20 µM

Compound: CNC1CCCC(c2c[nH]c3ccc(NC(=N)c4cccs4)cc23)C1 (single isomer, unassigned) [Compound 20a, N-(3-(3-(methylamino)cyclohexyl)-1H-indol-5-yl)thiophene-2-carboximidamide dihydrochloride]
IC50 ([2]; read-out: 5HT 1D, Table 14, listed as 20a (isomer-1), dihydrochloride): 3.2 µM | IC50 ([3]; Table 14, read-out: 5HT 1B): 1.3 µM | IC50 ([5]; Table 14, read-out: Human eNOS): 49.3 µM

Compound: CNC1CCCC(c2c[nH]c3ccc(NC(=N)c4cccs4)cc23)C1 (single isomer, unassigned) [Compound 20b, N-(3-(3-(methylamino)cyclohexyl)-1H-indol-5-yl)thiophene-2-carboximidamide dihydrochloride]
IC50 ([2]; read-out: 5HT 1D, Table 14, listed as 20b (isomer-2), dihydrochloride): 1.4 µM | IC50 ([3]; Table 14, read-out: 5HT 1B): 12 µM | IC50 ([5]; Table 14, read-out: Human eNOS): 75 µM

Compound: CCN1CC=C(c2c[nH]c3ccc(NC(=N)c4cccs4)cc23)CC1 [Compound 19, N-(3-(1-ethyl-1,2,3,6-tetrahydropyridin-4-yl)-1H-indol-5-yl)thiophene-2-carboximidamide]
eNOS/nNOS ([1]; Table 13, selectivity ratio): 92.4 | IC50 ([1]; Table 13, read-out: Human nNOS): 0.74 µM | IC50 ([5]; Table 13, read-out: Human eNOS): 68.4 µM

Compound: N=C(Nc1ccc2[nH]cc(C3=CCN(CCO)CC3)c2c1)c1cccs1 [Compound 24, N-(3-(1-(2-hydroxyethyl)-1,2,3,6-tetrahydropyridin-4-yl)-1H-indol-5-yl)thiophene-2-carboximidamide]
eNOS/nNOS ([1]; Table 15, selectivity ratio): 99 | IC50 ([1]; Table 15, read-out: IC50 in μM (Human nNOS)): 0.748 µM | IC50 [5, 8]: 74.1 µM

Compound: N=C(Nc1ccc2[nH]cc(CCN3CCCC3)c2c1)c1cccs1 [Compound 25, N-(3-(2-(pyrrolidin-1-yl)ethyl)-1H-indol-5-yl)thiophene-2-carboximidamide]
IC50 ([1]; IC50 in μM (Human nNOS), Table 15): 0.427 µM | eNOS/nNOS ([1]; Table 15, selectivity ratio): 23.2 | IC50 [5, 8]: 9.92 µM

Compound: CN1CCC[C@@H]1Cc1c[nH]c2ccc(NC(=N)c3cccs3)cc12 [Compound 27, (R)—N-(3-((1-Methylpyrrolidin-2-yl)methyl)-1H-indol-5-yl)thiophene-2-carboximidamide]
reversal of tactile allodynia in pancreatitis visceral pain model [6]: reverts the tactile allodynia

Compound: CNS(=O)(=O)Cc1ccc2[nH]cc(CCN(C)C)c2c1 [Sumatriptan, reference compound]
IC50 [2, 7]: 0.059 µM
